Results reported in article PMC2009384, “The carcinogenicity of polycyclic hydrocarbon epoxides in newborn mice” (British Journal of Cancer, 1975).

Test system: newborn Swiss mice
Assay: Experiment II: carcinogenicity in newborn mice, chrysene, 7-methylbenz(a)anthracene and K region epoxides (s.c. injection, tumour incidence to 70-75 weeks)
Conditions: for effect on the incidence of liver, lung or other tumours: in the doses tested (3 x 100 µg or 1 x 60 µg)
Source text: Br. J. Cancer (1975) 31, 182 THE CARCINOGENICITY OF POLYCYCLIC HYDROCARBON EPOXIDES IN NEWBORN MICE P. L. GROVER, P. SIMS, B. C. V. MITCHLEY AND F. J. C. ROE From the Chester Beatty Research Institute, Institute of Cancer Research, Royal Cancer Hospital, Fulham Road, London, SW3 6JB Received 9 August 1974. […] THE HYPOTHESIS that the carcino- genicity of polycyclic hydrocarbons is associated with the formation of epoxide metabolites (Grover, Hewer and Sims, 1971, 1972; Keysell et al., 1973) is sup- ported by some experimental evidence but remains unproven. […] The epoxides can also act as alkylating agents (Grover and Sims, 1970) and as mutagens (Ames, Sims and Grover, 1972; Huberman et al., 1971; Cookson, Sims and Grover, 1971; Fahmy and Fahmy, 1973). […] The newborn mouse, which is susceptible to carcinogenic polycyclic hydrocarbons (Roe, Rowson and Salaman, 1961; Roe, Mitchley and Walters, 1963; Walters and Roe, 1964, 1966) can be considered as a convenient source of several types of rapidly dividing cells. Consequently we have tested the K region epoxides derived from phenanthrene, benz(a)anthracene, 7-methylbenz(a)anthracene, dibenz(a,h)- anthracene, chrysene and 3-methylchol- anthrene, together with some of the CARCINOGENICITY OF POLYCYCLIC HYDROCARBON EPOXIDES IN MICE 183 parent hydrocarbons, for carcinogenicity using newborn mice. This paper presents the results that were obtained in these experiments. MATERIALS AND METHODS The polycyclic hydrocarbon epoxides, phenanthrene 9,10-oxide, benz(a)anthracene 5,6-oxide, 7-methylbenz(a)anthracene 5,6- oxide, dibenz(a,h)anthracene 5,6-oxide, chry- sene 5,6-oxide and 3-methylcholanthrene 11,12-oxide were prepared from the parent hydrocarbons (Newman and Blum, 1964; Boyland and Sims, 1965; Sims 1966). Two experiments were undertaken fol- lowing similar protocols. For each experi- ment Swiss mice from a specific pathogen- free colony were time mated so as to produce a large number of litters over the course of 2 or 3 days. […] Test compounds were suspended in poly- ethylene glycol (PEG) 400 and injections of 0-02 ml of the suspension were given by introducing a 25 gauge hypodermic needle through the skin near the root of the tail and threading it subcutaneously to deliver the injected material in the interscapular region. Injections were given to every mouse on the first day or first 3 days of life. The details of treatments and numbers of mice of each sex in each group are shown in Table I (Experiment I) and Table II (Ex- periment II). Surviving mice were weaned when they w ere 21 days old. Thereafter, males and females w ere separated and housed 6 per cage in metal boxes. A mixture of sawdust and wood shavings was used as bedding. The mice were fed on a standard cubed diet (Formulation 86 from C. Holdman and Sons (Plow co Feeds), Byers Lane, South Godstone, Surrey) and water was given ad libitum. Mice were inspected daily, and at weekly intervals they were weighed and palpated for tumours and other lesions. […] The experiment was terminated when surviving mice were between 70 and 75 weeks old. A full routine post- mortem examination, which included disten- sion of the urinary bladder with fixative, was carried out. The number of lesions thought to be neoplasms and the size of the largest such lesion in each organ affected were recorded. All tissues with suspected neoplasms were fixed in Bouin's solution. Haematoxylin and eosin stained 5 µm paraffin wax sections were prepared and examined microscopically. RESULTS The results of the two experiments in terms of tumour incidence are sum- marized in […].

[1] = females, 60 µg, 1 treatment (Day 0 only) s.c. in PEG 400
[2] = males, 60 µg, 1 treatment (Day 0 only) s.c. in PEG 400
[3] = females, 100 µg per treatment, 3 treatments
[4] = females, 100 µg per treatment, 3 treatments (Days 0, 1 and 2) s.c. in PEG 400
[5] = males, 100 µg per treatment, 3 treatments
[6] = males, 100 µg per treatment, 3 treatments (Days 0, 1 and 2) s.c. in PEG 400

Structure (SMILES): Cc1ccc2cc3c(c4c2c1CC4)C1OC1c1ccccc1-3 (stereo not drawn) [3-Methylcholanthrene 11,12-oxide]
- No. of mice examined at p.m. at termination of experiment (70-75th week) with liver tumours (females, 60 µg, 1 treatment): 0
- No. of mice examined at p.m. at termination of experiment (70-75th week) with lung tumours (females, 60 µg, 1 treatment): 3
- No. of mice examined at p.m. at termination of experiment (70-75th week) with multiple liver tumours (females, 60 µg, 1 treatment): 0
- No. of mice examined at p.m. at termination of experiment (70-75th week) with multiple lung tumours (females, 60 µg, 1 treatment): 1
- No. of mice examined at p.m. at termination of experiment (70-75th week) with other tumours (females, 60 µg, 1 treatment): 0
- No. of mice examined at p.m. from 50-70th week with liver tumours (females, 60 µg, 1 treatment): 0
- No. of mice examined at p.m. from 50-70th week with lung tumours (females, 60 µg, 1 treatment): 0
- No. of mice examined at p.m. from 50-70th week with other tumours (females, 60 µg, 1 treatment): 0
- No. of survivors at 50 weeks [1]: 27
- No. of survivors at 70 weeks [1]: 25
- effect on the incidence of liver, lung or other tumours: without apparent effect
- No. of mice examined at p.m. at termination of experiment (70-75th week) with liver tumours (males, 60 µg, 1 treatment): 6
- No. of mice examined at p.m. at termination of experiment (70-75th week) with lung tumours (males, 60 µg, 1 treatment): 5
- No. of mice examined at p.m. at termination of experiment (70-75th week) with multiple liver tumours (males, 60 µg, 1 treatment): 1
- No. of mice examined at p.m. at termination of experiment (70-75th week) with multiple lung tumours (males, 60 µg, 1 treatment): 0
- No. of mice examined at p.m. at termination of experiment (70-75th week) with other tumours (males, 60 µg, 1 treatment): 0
- No. of mice examined at p.m. from 50-70th week with liver tumours (males, 60 µg, 1 treatment): 0
- No. of mice examined at p.m. from 50-70th week with lung tumours (males, 60 µg, 1 treatment): 0
- No. of mice examined at p.m. from 50-70th week with other tumours (males, 60 µg, 1 treatment): 0
- No. of survivors at 50 weeks [2]: 28
- No. of survivors at 70 weeks [2]: 26

Structure (SMILES): c1ccc2c(c1)-c1ccccc1C1OC21 (stereo not drawn) [phenanthrene 9,10-oxide]
- No. of mice examined at p.m. at termination of experiment (70-75th week) with liver tumours [3]: 2
- No. of mice examined at p.m. at termination of experiment (70-75th week) with lung tumours [3]: 0
- No. of mice examined at p.m. at termination of experiment (70-75th week) with multiple liver tumours [3]: 1
- No. of mice examined at p.m. at termination of experiment (70-75th week) with multiple lung tumours [3]: 0
- No. of mice examined at p.m. at termination of experiment (70-75th week) with other tumours [3]: 0
- No. of mice examined at p.m. from 50-70th week with liver tumours [3]: 0
- No. of mice examined at p.m. from 50-70th week with lung tumours [3]: 0
- No. of mice examined at p.m. from 50-70th week with other tumours [3]: 0
- No. of survivors at 50 weeks [4]: 13
- No. of survivors at 70 weeks [4]: 13
- effect on the incidence of liver, lung or other tumours: no effect
- No. of mice examined at p.m. at termination of experiment (70-75th week) with liver tumours [5]: 4
- No. of mice examined at p.m. at termination of experiment (70-75th week) with lung tumours [5]: 2
- No. of mice examined at p.m. at termination of experiment (70-75th week) with multiple liver tumours [5]: 1
- No. of mice examined at p.m. at termination of experiment (70-75th week) with multiple lung tumours [5]: 1
- No. of mice examined at p.m. at termination of experiment (70-75th week) with other tumours [5]: 0
- No. of mice examined at p.m. from 50-70th week with liver tumours [5]: 0
- No. of mice examined at p.m. from 50-70th week with lung tumours [5]: 0
- No. of mice examined at p.m. from 50-70th week with other tumours [5]: 0
- No. of survivors at 50 weeks [6]: 19
- No. of survivors at 70 weeks [6]: 17
